Data from patent EP4722212A1, “NOVEL COMPOUND FOR INHIBITING PROTEIN KINASES AND PHARMACEUTICAL COMPOSITION COMPRISING SAME” (Magicbullettherapeutics Co., Ltd., priority 2023, dated 2024).

Legend:
CDK8/cyclin C = CDK8/cyclin C (Homo sapiens, UniProt P49336); test: Kinase panel; type: biochemical; conditions: read-out: residual enzyme activity
In short: (§1)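 Full kinase panel, biochemical readout. A single 1 µM compound concentration was tested, and residual activity was derived; kinases whose activity dropped to 40% or less were recorded.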

PKMYT1 = PKMYT1 (Homo sapiens, UniProt Q99640); test: Kinase panel; type: biochemical; conditions: PKMYT1, 1 µM; read-out: residual enzyme activity
Chain of PKMYT1 (Q99640 whole entry, species assumed): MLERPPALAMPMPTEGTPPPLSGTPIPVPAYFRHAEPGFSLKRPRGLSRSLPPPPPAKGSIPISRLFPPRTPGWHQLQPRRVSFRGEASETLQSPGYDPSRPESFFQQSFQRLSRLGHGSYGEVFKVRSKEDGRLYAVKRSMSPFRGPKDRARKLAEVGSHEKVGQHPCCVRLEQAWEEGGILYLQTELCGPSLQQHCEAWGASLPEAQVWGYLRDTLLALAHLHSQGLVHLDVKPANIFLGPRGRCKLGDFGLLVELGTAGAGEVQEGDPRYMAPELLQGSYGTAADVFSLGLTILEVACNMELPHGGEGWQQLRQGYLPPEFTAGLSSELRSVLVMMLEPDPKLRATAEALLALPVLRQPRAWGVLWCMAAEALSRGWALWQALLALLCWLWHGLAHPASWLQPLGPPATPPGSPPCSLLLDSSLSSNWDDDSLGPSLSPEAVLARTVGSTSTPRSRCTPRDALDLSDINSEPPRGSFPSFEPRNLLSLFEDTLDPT
In short: as §1

CDK19/cyclin C = CDK19/cyclin C (Homo sapiens, UniProt Q9BWU1); test: Kinase panel; type: biochemical; conditions: read-out: residual enzyme activity
Chain of CDK19/cyclin C (Q9BWU1 whole entry, species assumed): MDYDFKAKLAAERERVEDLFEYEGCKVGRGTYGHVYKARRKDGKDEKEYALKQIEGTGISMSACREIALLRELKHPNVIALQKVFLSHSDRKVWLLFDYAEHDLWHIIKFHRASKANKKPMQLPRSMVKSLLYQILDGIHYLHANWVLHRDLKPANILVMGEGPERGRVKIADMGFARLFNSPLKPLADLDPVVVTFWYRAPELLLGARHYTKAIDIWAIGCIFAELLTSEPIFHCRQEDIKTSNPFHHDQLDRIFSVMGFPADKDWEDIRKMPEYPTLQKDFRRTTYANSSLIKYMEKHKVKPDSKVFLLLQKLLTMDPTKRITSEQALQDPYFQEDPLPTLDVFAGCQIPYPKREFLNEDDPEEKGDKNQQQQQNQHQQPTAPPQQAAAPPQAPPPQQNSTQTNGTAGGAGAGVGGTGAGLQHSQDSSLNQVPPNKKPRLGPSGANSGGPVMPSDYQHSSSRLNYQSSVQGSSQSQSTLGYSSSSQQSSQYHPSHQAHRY
Chain of CDK19/cyclin C (P24863 whole entry partner, species assumed): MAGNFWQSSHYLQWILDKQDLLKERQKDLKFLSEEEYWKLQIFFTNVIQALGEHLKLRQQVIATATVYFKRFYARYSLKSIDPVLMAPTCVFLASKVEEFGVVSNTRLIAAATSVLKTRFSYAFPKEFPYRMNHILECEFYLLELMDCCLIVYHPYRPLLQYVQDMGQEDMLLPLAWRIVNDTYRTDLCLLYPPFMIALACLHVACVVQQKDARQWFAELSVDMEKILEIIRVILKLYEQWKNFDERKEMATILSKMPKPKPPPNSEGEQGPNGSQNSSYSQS
In short: as §1

DLK/MAP3K12 = DLK/MAP3K12 (Homo sapiens, UniProt Q12852); test: Kinase panel; type: biochemical; conditions: DLK/MAP3K12, 1 µM; read-out: residual enzyme activity
Chain of DLK/MAP3K12 (Q12852 whole entry): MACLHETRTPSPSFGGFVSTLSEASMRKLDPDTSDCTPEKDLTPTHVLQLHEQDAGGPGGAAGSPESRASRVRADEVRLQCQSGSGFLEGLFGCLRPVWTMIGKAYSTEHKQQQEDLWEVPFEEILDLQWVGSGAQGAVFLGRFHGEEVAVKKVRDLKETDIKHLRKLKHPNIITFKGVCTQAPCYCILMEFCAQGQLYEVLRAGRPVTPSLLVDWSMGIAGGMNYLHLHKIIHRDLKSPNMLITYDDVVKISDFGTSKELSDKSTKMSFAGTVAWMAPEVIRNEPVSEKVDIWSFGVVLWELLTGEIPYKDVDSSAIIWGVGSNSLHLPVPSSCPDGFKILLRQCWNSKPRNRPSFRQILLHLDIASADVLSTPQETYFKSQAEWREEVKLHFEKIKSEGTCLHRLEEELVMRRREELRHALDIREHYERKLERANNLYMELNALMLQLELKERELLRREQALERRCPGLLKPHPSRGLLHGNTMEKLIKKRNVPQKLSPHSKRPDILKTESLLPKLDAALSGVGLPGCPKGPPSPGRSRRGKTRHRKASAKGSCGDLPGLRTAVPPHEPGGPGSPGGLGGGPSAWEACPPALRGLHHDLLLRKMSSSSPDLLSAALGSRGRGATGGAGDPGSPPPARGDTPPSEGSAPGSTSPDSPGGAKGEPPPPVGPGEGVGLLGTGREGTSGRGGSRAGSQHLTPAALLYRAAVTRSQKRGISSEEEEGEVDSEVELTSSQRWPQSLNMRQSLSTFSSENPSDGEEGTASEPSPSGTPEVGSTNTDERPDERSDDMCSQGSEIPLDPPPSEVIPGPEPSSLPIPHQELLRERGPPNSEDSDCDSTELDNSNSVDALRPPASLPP
In short: as §1

RIPK3 = RIPK3 (Homo sapiens, UniProt Q9Y572); test: Kinase panel; type: biochemical; conditions: RIPK3, 1 µM; read-out: residual enzyme activity
Chain of RIPK3 (Q9Y572 whole entry, species assumed): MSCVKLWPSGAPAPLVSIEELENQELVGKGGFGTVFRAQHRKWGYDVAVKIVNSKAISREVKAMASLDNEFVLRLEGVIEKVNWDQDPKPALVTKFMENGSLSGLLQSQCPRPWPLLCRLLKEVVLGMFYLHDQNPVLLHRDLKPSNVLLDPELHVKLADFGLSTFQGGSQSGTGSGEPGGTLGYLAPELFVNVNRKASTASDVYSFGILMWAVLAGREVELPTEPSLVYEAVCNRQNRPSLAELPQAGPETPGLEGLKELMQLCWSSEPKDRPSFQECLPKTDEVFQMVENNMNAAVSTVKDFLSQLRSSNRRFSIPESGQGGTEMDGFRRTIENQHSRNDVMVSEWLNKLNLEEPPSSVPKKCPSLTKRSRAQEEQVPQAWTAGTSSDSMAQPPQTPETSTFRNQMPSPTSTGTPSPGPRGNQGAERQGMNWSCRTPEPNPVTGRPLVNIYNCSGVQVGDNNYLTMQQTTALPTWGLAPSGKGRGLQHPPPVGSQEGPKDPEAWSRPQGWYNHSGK
In short: as §1

CDK6/CYCLIN D2 = CDK6/CYCLIN D2 (Homo sapiens, UniProt Q00534); test: Kinase panel; type: biochemical; conditions: CDK6/CYCLIN D2, 1 µM; read-out: residual enzyme activity
Chain of CDK6/CYCLIN D2 (Q00534 whole entry, species assumed): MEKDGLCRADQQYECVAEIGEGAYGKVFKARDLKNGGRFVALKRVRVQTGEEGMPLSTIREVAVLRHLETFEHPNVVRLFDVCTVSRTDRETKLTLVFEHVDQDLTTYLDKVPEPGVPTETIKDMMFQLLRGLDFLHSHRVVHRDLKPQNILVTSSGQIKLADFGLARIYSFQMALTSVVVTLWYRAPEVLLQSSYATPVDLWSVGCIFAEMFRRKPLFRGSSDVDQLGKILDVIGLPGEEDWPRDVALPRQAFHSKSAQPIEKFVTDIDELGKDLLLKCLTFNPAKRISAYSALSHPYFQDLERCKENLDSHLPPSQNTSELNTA
Chain of CDK6/CYCLIN D2 (P30279 whole entry partner, species assumed): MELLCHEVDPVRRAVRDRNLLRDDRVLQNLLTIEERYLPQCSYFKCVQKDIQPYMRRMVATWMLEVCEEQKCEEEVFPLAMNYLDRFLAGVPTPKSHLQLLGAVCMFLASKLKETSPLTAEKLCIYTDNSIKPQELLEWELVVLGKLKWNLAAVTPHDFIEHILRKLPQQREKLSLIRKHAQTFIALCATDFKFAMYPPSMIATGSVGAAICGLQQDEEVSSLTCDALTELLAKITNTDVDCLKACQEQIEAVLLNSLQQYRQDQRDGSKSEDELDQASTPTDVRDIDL
In short: as §1

CDK4/CYCLIN D2 = CDK4/CYCLIN D2 (Homo sapiens, UniProt P11802); test: Kinase panel; type: biochemical; conditions: CDK4/CYCLIN D2, 1 µM; read-out: residual enzyme activity
Chain of CDK4/CYCLIN D2 (P11802 whole entry, species assumed): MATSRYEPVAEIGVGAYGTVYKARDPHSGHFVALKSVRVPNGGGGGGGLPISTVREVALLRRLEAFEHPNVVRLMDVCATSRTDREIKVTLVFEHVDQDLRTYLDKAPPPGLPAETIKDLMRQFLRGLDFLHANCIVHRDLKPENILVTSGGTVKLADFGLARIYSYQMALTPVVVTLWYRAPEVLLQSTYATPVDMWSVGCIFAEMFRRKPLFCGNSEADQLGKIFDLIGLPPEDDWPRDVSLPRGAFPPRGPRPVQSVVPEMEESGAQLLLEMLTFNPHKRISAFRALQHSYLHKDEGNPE
Chain of CDK4/CYCLIN D2 (P30279 whole entry partner, species assumed): as the sequence (P30279 whole entry partner, species assumed) above
In short: as §1

22Rv1 = test: Cell line inhibition analysis (CCK-8, 72 h); type: cell-based; conditions: Homo sapiens; 22Rv1, 72 hours; read-out: Cell growth inhibition GI50 22Rv1
In short: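 Cells attached one day, then treated 72 h at 37 °C with nine 3-fold compound dilutions (final 0-50 µM) or DMSO. Growth read by CCK-8 absorbance at 450 nm after 2 h, medium-blank corrected, with a day-0 plate defining 0% growth; GI50 calculated.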

Chain of CDK8/cyclin C (P49336 whole entry, species assumed): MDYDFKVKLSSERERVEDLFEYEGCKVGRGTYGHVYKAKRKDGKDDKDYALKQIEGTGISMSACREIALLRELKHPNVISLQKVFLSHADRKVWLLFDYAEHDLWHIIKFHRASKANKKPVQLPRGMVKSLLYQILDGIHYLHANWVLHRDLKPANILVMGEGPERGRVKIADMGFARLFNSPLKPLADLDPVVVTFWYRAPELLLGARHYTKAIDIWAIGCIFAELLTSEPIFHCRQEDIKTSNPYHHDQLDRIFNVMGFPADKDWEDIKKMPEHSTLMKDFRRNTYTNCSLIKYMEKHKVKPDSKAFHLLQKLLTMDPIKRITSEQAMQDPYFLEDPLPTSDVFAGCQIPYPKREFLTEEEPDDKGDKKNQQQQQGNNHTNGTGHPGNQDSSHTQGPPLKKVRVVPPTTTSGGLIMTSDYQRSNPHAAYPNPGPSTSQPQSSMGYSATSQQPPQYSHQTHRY
Chain of CDK8/cyclin C (P24863 whole entry partner, species assumed): as the sequence (P24863 whole entry partner, species assumed) above

| Structure (SMILES) | remaining activity at 1 µM (CDK8/cyclin C) | remaining activity at 1 µM (PKMYT1) | remaining activity at 1 µM (CDK19/cyclin C) | remaining activity at 1 µM (DLK/MAP3K12) | remaining activity at 1 µM (RIPK3) | remaining activity at 1 µM (CDK6/CYCLIN D2) | remaining activity at 1 µM (CDK4/CYCLIN D2) | GI50 (22Rv1) |
| --- | --- | --- | --- | --- | --- | --- | --- | --- |
| Cc1ccc(Nc2ncc3c(n2)C2(CC2)C(=O)N(c2cc(NC(=O)c4cccc(C(F)(F)F)c4)ccc2C)C3)cn1 [Compound 51, N-(4-methyl-3-(2'-((6-methylpyridin-3-yl)amino)-7'-oxo-5'H-spiro[cyclopropane-1,8'-pyrido[4,3-d]pyrimidine]-6'(7'H)-yl)phenyl)-3-(trifluoromethyl)benzamide] | > 40% | > 40% | > 40% | > 40% | ≤ 40% | – | – | – |
| Cc1cn(-c2cc(C(=O)Nc3ccc(C)c(N4Cc5cnc(NC6CC6)nc5C5(CC5)C4=O)c3)cc(C(F)(F)F)c2)cn1 [Compound 8, N-(3-(2'-(cyclopropylamino)-7'-oxo-5'H-spiro[cyclopropane-1,8'-pyrido[4,3-d]pyrimidine]-6'(7'H)-yl)-4-methylphenyl)-3-(4-methyl-1H-imidazol-1-yl)-5-(trifluoromethyl)benzamide] | – | – | – | – | – | > 40% | > 40% | < 1000 nM |
